Results on ten compounds are retold here after patent publication US8138168B1 (Takeda Pharmaceutical Company Limited, priority 2007, dated 2012).

For this experiment, the target named is T1, Recombinant human renin (Homo sapiens, UniProt P00797).
T1 construct: isolate the active form (residues 67-406); made in house; host or cells: FreeStyle 293-F cells (transient expression of pcDNA3.1(+)/hREN)
T1 sequence (P00797 67-406): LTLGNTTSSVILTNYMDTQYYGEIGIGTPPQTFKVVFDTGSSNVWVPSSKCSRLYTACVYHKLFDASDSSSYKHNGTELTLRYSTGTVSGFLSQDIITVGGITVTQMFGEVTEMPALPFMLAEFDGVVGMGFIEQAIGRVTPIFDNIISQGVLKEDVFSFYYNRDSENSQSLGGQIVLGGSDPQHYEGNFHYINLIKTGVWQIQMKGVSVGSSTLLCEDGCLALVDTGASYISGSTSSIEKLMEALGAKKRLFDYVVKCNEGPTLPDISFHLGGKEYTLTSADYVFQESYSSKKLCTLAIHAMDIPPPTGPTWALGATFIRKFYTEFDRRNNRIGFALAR
Description: In vitro enzymatic activity assay of renin inhibitors (fluorogenic peptide substrate). Type of experiment: biochemical. As to conditions: read-out: IC50 of Exemplified Compounds Against Renin. The gist of the method:
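Recombinant human renin (3 nM final) pre-incubated 10 min at 37 °C with compounds in pH 7.4 Hepes/EDTA/DTT/0.1 mg/mL BSA/Brij35 buffer (optionally plus 2% BSA), 5% DMSO final; fluorogenic QXL520/HiLyteFluo488 peptide substrate added.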
What is called IC50 is the midpoint of a concentration-inhibition curve. As for `NC(=O)CCn1c([C@@H]2CCCN(C(=O)C[C@H](N)Cc3ccc(-c4ccncc4)cc3)C2)nc2ccccc21` [Compound 488, 3-(2-((R)-1-((R)-3-amino-4-(4-(pyridin-4-yl)phenyl)butanoyl)piperidin-3-yl)-1H-benzo[d]imidazol-1-yl)propanamide], the IC50 fell in the range of 100 to 1000 nM.

In the case of `NC(=O)CCn1c([C@@H]2CCCN(C(=O)C[C@H](N)Cc3ccc(-c4ccc(Cl)cc4)cc3)C2)nc2ccccc21` [Compound 489, 3-(2-((R)-1-((R)-3-amino-4-(4′-chlorobiphenyl-4-yl)butanoyl)piperidin-3-yl)-1H-benzo[d]imidazol-1-yl)propanamide], the half-inhibitory concentration (IC50) is above 1000 nM.

For `COCCCn1c([C@@H]2CCCN(C(=O)C[C@H](N)Cc3ccc(-c4ccc5c(c4)CCO5)cc3)C2)nc2c(F)cccc21` [Compound 490, (R)-3-amino-4-(4-(2,3-dihydrobenzofuran-5-yl)phenyl)-1-((R)-3-(4-fluoro-1-(3-methoxypropyl)-1H-benzo[d]imidazol-2-yl)piperidin-1-yl)butan-1-one], the IC50 was below 100 nM. Consider `COCCCn1c([C@@H]2CCCN(C(=O)C[C@H](N)Cc3ccc(-c4ccc(NC(C)=O)cc4)cc3)C2)nc2c(F)cccc21` [Compound 491, N-(4′-((R)-2-amino-4-((R)-3-(4-fluoro-1-(3-methoxypropyl)-1H-benzo[d]imidazol-2-yl)piperidin-1-yl)-4-oxobutyl)biphenyl-4-yl)acetamide], for which the concentration for half-maximal inhibition (IC50) was below 100 nM. `COCCCn1c([C@@H]2CCCN(C(=O)C[C@H](N)Cc3ccc(-c4ccc(OC)cc4)cc3)C2)nc2c(F)cccc21` [Compound 492, (R)-3-amino-1-((R)-3-(4-fluoro-1-(3-methoxypropyl)-1H-benzo[d]imidazol-2-yl)piperidin-1-yl)-4-(4′-methoxybiphenyl-4-yl)butan-1-one]: the IC50 was below 100 nM. Next, `COCCCn1c([C@@H]2CCCN(C(=O)C[C@H](N)Cc3ccc(-c4ccc5c(c4)CCO5)cc3)C2)nc2c(C)cccc21` [Compound 493, (R)-3-amino-4-(4-(2,3-dihydrobenzofuran-5-yl)phenyl)-l-((R)-3-(1-(3-methoxypropyl)-4-methyl-1H-benzo[d]imidazol-2-yl)piperidin-1-yl)butan-1-one]: below 100 nM; `COCCCn1c([C@@H]2CCCN(C(=O)C[C@H](N)Cc3ccc(-c4ccc5occc5c4)cc3)C2)nc2c(C)cccc21` [Compound 494, (R)-3-amino-4-(4-(benzofuran-5-yl)phenyl)-1-((R)-3-(1-(3-methoxypropyl)-4-methyl-1H-benzo[d]imidazol-2-yl)piperidin-1-yl)butan-1-one]: below 100 nM. With `COCCCn1c([C@@H]2CCCN(C(=O)C[C@H](N)Cc3ccc(-c4ccc5c(c4)CC(=O)N5)cc3)C2)nc2c(C)cccc21` [Compound 495, 5-(4-((R)-2-amino-4-((R)-3-(1-(3-methoxypropyl)-4-methyl-1H-benzo[d]imidazol-2-yl)piperidin-l-yl)-4-oxobutyl)phenyl)indolin-2-one], the IC50 is below 100 nM.

With `COCCCn1c([C@@H]2CCCN(C(=O)C[C@H](N)Cc3ccc(-c4ccc5c(c4)SCC(=O)N5)cc3)C2)nc2c(C)cccc21` [Compound 496, 7-(4-((R)-2-amino-4-((R)-3-(1-(3-methoxypropyl)-4-methyl-1H-benzo[d]imidazol-2-yl)piperidin-1-yl)-4-oxobutyl)phenyl)-2H-benzo[b][1,4]thiazin-3(4H)-one], the half-maximal inhibitory concentration (IC50) is below 100 nM. In the case of `COCCCn1c([C@@H]2CCCN(C(=O)C[C@H](N)Cc3ccc(-c4ccc5c(c4)OCC(=O)N5)cc3)C2)nc2c(C)cccc21` [Compound 497, 7-(4-((R)-2-amino-4-((R)-3-(1-(3-rnethoxypropyl)-4-methyl-1H-benzo[d]imidazol-2-yl)piperidin-1-yl)-4-oxobutyl)phenyl)-2H-benzo[b][1,4]oxazin-3(4H)-one] it was below 100 nM.
